# Experimental data from BindingDB's records for doi:10.1021/jm960441m (Upjohn, 1997).
# Biological target: T1, Dimer of Gag-Pol polyprotein [489-587] (Human immunodeficiency virus 1, UniProt P04585)
# T1 construct: 489-587
# Test: Protease Inhibition Assay
# Conditions: pH 5; 22 °C
# Source text: (§1) HIV-1 protease was purified and refolded from E. coli inclusion bodies. […] In the presence of HIV-l protease, the substrate is rapidly cleaved into two parts. The biotinylated amino terminal fragment binds to the avidin beads while the FITC-containing carboxy1 terminal fragment is removed through the membrane. […] The bound fluorescence is obtained by processing on an IDEXX Screen Machine. Determination of Ki values with this assay requires analysis under conditions in which substrate concentration resides substantially below Km and the inhibitor concentrations greatly exceeds the Ki value and the enzyme concentration.
row,SMILES,Ki [nM]
1,"N#Cc1cccc(S(=O)(=O)Nc2cccc(C(c3c(O)c4c(oc3=O)CCCCCC4)C3CC3)c2)c1 (stereo not drawn) [3-cyano-N-{3-[cyclopropyl({4-hydroxy-2-oxo-2H,5H,6H,7H,8H,9H,10H-cycloocta[b]pyran-3-yl})methyl]phenyl}benzene-1-sulfonamide]",0.6

# Biological target: T2, Dimer of Gag-Pol polyprotein [489-587] (Human immunodeficiency virus 1, UniProt P12497)
# T2 construct: 489-587
# Test: Protease Inhibition Assay
# Conditions: not given
# Source text: as §1
row,SMILES,Ki [nM]
1,"O=c1oc2c(c(O)c1C(c1cccc(NS(=O)(=O)c3ccc([N+](=O)[O-])cc3)c1)C1CC1)CCCCCC2 (stereo not drawn) [N-{3-[cyclopropyl({4-hydroxy-2-oxo-2H,5H,6H,7H,8H,9H,10H-cycloocta[b]pyran-3-yl})methyl]phenyl}-4-nitrobenzene-1-sulfonamide]",2.7
2,"O=c1oc2c(c(O)c1C(c1cccc(NS(=O)(=O)c3cccc4ccccc34)c1)C1CC1)CCCCCC2 (stereo not drawn) [N-{3-[cyclopropyl({4-hydroxy-2-oxo-2H,5H,6H,7H,8H,9H,10H-cycloocta[b]pyran-3-yl})methyl]phenyl}naphthalene-1-sulfonamide]",5.5
3,"O=c1oc2c(c(O)c1C(c1cccc(NS(=O)(=O)c3ccc4ccccc4c3)c1)C1CC1)CCCCCC2 (stereo not drawn) [N-{3-[cyclopropyl({4-hydroxy-2-oxo-2H,5H,6H,7H,8H,9H,10H-cycloocta[b]pyran-3-yl})methyl]phenyl}naphthalene-2-sulfonamide]",4.1
4,"O=c1oc2c(c(O)c1C(c1cccc(NS(=O)(=O)c3cnccn3)c1)C1CC1)CCCCCC2 (stereo not drawn) [N-{3-[cyclopropyl({4-hydroxy-2-oxo-2H,5H,6H,7H,8H,9H,10H-cycloocta[b]pyran-3-yl})methyl]phenyl}pyrazine-2-sulfonamide]",0.2
5,"O=c1oc2c(c(O)c1C(c1cccc(NS(=O)(=O)c3ncccn3)c1)C1CC1)CCCCCC2 (stereo not drawn) [N-{3-[cyclopropyl({4-hydroxy-2-oxo-2H,5H,6H,7H,8H,9H,10H-cycloocta[b]pyran-3-yl})methyl]phenyl}pyrimidine-2-sulfonamide]",0.8
6,"O=c1oc2c(c(O)c1C(c1cccc(NS(=O)(=O)c3ccc4ccccc4n3)c1)C1CC1)CCCCCC2 (stereo not drawn) [N-{3-[cyclopropyl({4-hydroxy-2-oxo-2H,5H,6H,7H,8H,9H,10H-cycloocta[b]pyran-3-yl})methyl]phenyl}quinoline-2-sulfonamide]",0.4
7,"O=c1oc2c(c(O)c1C(c1cccc(NS(=O)(=O)c3cccs3)c1)C1CC1)CCCCCC2 (stereo not drawn) [N-{3-[cyclopropyl({4-hydroxy-2-oxo-2H,5H,6H,7H,8H,9H,10H-cycloocta[b]pyran-3-yl})methyl]phenyl}thiophene-2-sulfonamide]",6.3
